# Reference: patent publication US20230053540A1, “TREATMENT OF LIVER INJURY” (Massachusetts Institute of Technology, priority 2019, published 2023)
# Tested on: hepatocytes
# Test: Seq-Well scRNA-Seq of hepatocytes after APAP overdose (signature scores, DEG vs untreated)
# Format: in vivo, mouse
# Conditions: APAP vs UT
structure (smiles),measurement,setting,value
"CC(=O)Nc1ccc(O)cc1 [APAP, acetaminophen]",Ndufb4 logFC,,−0.4537
same,Ndufb6 logFC,,−0.5077
same,Ndufb9 logFC,,−0.5038
same,Ndufb11 logFC,,−0.5097
same,Ndufs6 logFC,,−0.5379
same,Nedd4 logFC,,0.3774
same,Nit2 logFC,,−0.4859
same,Nolc1 logFC,,0.4722
same,Nop56 logFC,,0.2657
same,Nr5a2 logFC,,0.322
same,Nrp1 logFC,,0.3608
same,Oaz1 logFC,,−0.4185
same,Orm2 logFC,,0.2715
same,Pah logFC,,−0.5221
same,Park7 logFC,,−0.2602
same,Pdcd4 logFC,,0.4882
same,Pdia4 logFC,,0.4882
same,Pdia6 logFC,,−0.39
same,Pemt logFC,,−0.5512
same,Pfkfb2 logFC,,0.29
same,Picalm logFC,,0.7545
same,Pik3c2a logFC,,0.3249
same,Plec logFC,,0.4675
same,Plg logFC,,0.2617
same,Ppan logFC,,0.2724
same,Ppib logFC,,−0.5897
same,Ppm1k logFC,,−0.5584
same,Ppp1r3b logFC,,−0.4027
same,Ppp2r5a logFC,,−0.2605
same,Prg4 logFC,,0.4306
same,Prkd3 logFC,,0.3665
same,Pten logFC,,0.3559
same,Ptms logFC,,0.2678
same,Ptpn1 logFC,,0.4163
same,Ptpn12 logFC,,0.3342
same,Qdpr logFC,,−0.5236
same,Qsox1 logFC,,0.3424
same,Rab1 logFC,,0.3526
same,Rad54l2 logFC,,0.3887
same,Ranbp2 logFC,,0.5985
same,Rarres2 logFC,,−0.5522
same,Rdh16 logFC,,0.2692
same,Rgs2 logFC,,0.3957
same,Rnd3 logFC,,0.3655
same,Rock2 logFC,,0.5941
same,Rora logFC,,0.6444
same,Rpl32 logFC,,−0.5322
same,Rpl36a1 logFC,,−0.4755
same,Rplp1 logFC,,−0.5047
same,Rpn1 logFC,,0.4124
same,Rps2 logFC,,−0.3879
same,Rrbp1 logFC,,0.3069
same,S100a1 logFC,,−0.3762
same,Saa4 logFC,,−0.571
same,Sar1b logFC,,−0.3176
same,Sat1 logFC,,0.6887
same,Sc5d logFC,,−0.5009
same,Sdad1 logFC,,0.3124
same,Sdc3 logFC,,0.3598
same,Sdc4 logFC,,0.6196
same,Sdhd logFC,,−0.3353
same,Sds logFC,,−0.407
same,Sec61a1 logFC,,0.3139
same,Selenbp1 logFC,,−0.4937
same,Serp1 logFC,,0.3124
same,Serpina3c logFC,,−0.4725
same,Sfxn1 logFC,,0.3049
same,Slc2a2 logFC,,−0.3123
same,Slc3a1 logFC,,0.341
same,Slc10a2 logFC,,0.299
same,Slc20a1 logFC,,0.3572
same,Slc37a4 logFC,,0.2683
same,Slc38a3 logFC,,−0.4098
same,Slc38a4 logFC,,0.2637
same,Slco1a1 logFC,,−0.3628
same,Son logFC,,0.5429
same,Sorl1 logFC,,0.3067
same,Sparcl1 logFC,,−0.2536
same,Spcs3 logFC,,0.3942
same,Spred1 logFC,,0.3884
same,Sqstm1 logFC,,0.7432
same,Ssr1 logFC,,0.3278
same,Ssr4 logFC,,−0.5076
same,St3gal1 logFC,,0.5287
same,Stard4 logFC,,0.3515
same,Stard10 logFC,,−0.3383
same,Stat3 logFC,,0.7154
same,Stk40 logFC,,0.5364
same,Tacc2 logFC,,0.3293
same,Tatdn2 logFC,,0.3733
same,Tbc1d15 logFC,,0.4886
same,Tcerg1 logFC,,0.3575
same,Thrsp logFC,,−0.725
same,Tiparp logFC,,0.5456
same,Tjp2 logFC,,0.4115
same,Tlcd2 logFC,,−0.5945
same,Tm4sf4 logFC,,0.5126
same,Tmed7 logFC,,0.3868
same,Tmem30a logFC,,0.3328
same,Tmem87b logFC,,0.4344
same,Tmem106b logFC,,0.2802
same,Tmem256 logFC,,−0.5185
same,Tnfrsf1a logFC,,0.5996
same,Tra2a logFC,,0.7123
same,Tram1 logFC,,0.4111
same,Trip12 logFC,,0.3283
same,Tsc22d2 logFC,,0.3911
same,Tsku logFC,,0.3676
same,Tsr1 logFC,,0.3603
same,Ttc39c logFC,,−0.6363
same,Tubb2a logFC,,0.7494
same,Ubxn4 logFC,,0.2503
same,Ucp2 logFC,,0.2612
same,Ugdh logFC,,0.6331
same,Uggt1 logFC,,0.2845
same,Ugt2a3 logFC,,−0.3334
same,Uox logFC,,−0.5531
same,Upb1 logFC,,−0.4187
same,Upp2 logFC,,−0.6903
same,Uqcr10 logFC,,−0.4519
same,Uqcr11 logFC,,−0.6031
same,Uqcrh logFC,,−0.4292
same,Usmg5 logFC,,−0.4305
same,Uso1 logFC,,0.3881
same,Usp4 logFC,,0.3247
same,Usp9x logFC,,0.4076
same,Vkorc1 logFC,,−0.4042
same,Vsig4 logFC,,0.4833
same,Wfdc17 logFC,,0.4867
same,Xbp1 logFC,,0.6032
same,Ywhag logFC,,0.5824
same,Zfp683 logFC,,−0.4217
same,mmu-mir-6236 logFC,,0.7875
same,mt-Atp6 logFC,,−0.5737
same,mt-Nd6 logFC,,−0.4779
same,mt-Tm logFC,,0.2847
same,mt-Tq logFC,,0.2879
same,15-Sep logFC,composite DEG,−0.4092
same,0610005C13Rik logFC,composite DEG,−0.4251
same,0610011F06Rik logFC,composite DEG,−0.3037
same,1100001G20Rik logFC,composite DEG,−0.8516
same,1110001J03Rik logFC,composite DEG,−0.4328
same,1500011K16Rik logFC,composite DEG,−0.3296
same,1500017E21Rik logFC,composite DEG,−0.461
same,1700017B05Rik logFC,composite DEG,0.3307
same,1810022K09Rik logFC,composite DEG,−0.3001
same,2010003K11Rik logFC,composite DEG,0.5884
same,2010107E04Rik logFC,composite DEG,−0.3182
same,2410015M20Rik logFC,composite DEG,−0.4021
same,2810007J24Rik logFC,composite DEG,−0.9143
same,AW112010 logFC,composite DEG,−0.2981
same,Aadat logFC,composite DEG,−0.3186
same,Aass logFC,composite DEG,0.4775
same,Abca6 logFC,composite DEG,0.3328
same,Abcb4 logFC,composite DEG,0.4947
same,Abcc3 logFC,composite DEG,0.3638
same,Abcd2 logFC,composite DEG,0.2851
same,Abcd3 logFC,composite DEG,−0.2718
same,Abhd14b logFC,composite DEG,−0.3937
same,Acad11 logFC,composite DEG,0.3571
same,Acadl logFC,composite DEG,0.3162
same,Acads logFC,composite DEG,−0.3242
same,Acat1 logFC,composite DEG,0.3689
same,Acbd5 logFC,composite DEG,−0.3952
same,Acly logFC,composite DEG,0.3288
same,Aco2 logFC,composite DEG,0.2859
same,Acot1 logFC,composite DEG,0.3078
same,Acot12 logFC,composite DEG,0.3078
same,Acsl1 logFC,composite DEG,−0.3703
same,Acsm1 logFC,composite DEG,−0.3692
same,Actb logFC,composite DEG,1.06
same,Actn4 logFC,composite DEG,0.3124
same,Acy3 logFC,composite DEG,−0.3137
same,Adamts1 logFC,composite DEG,0.2826
same,Adck3 logFC,composite DEG,−0.8761
same,Adh1 logFC,composite DEG,−1.255
same,Adtrp logFC,composite DEG,−0.3664
same,Aff4 logFC,composite DEG,0.6163
same,Agpat2 logFC,composite DEG,−0.2982
same,Agpat6 logFC,composite DEG,0.3963
same,Agpat9 logFC,composite DEG,0.327
same,Agxt logFC,composite DEG,−0.2584
same,Ahcy logFC,composite DEG,−0.563
same,Ak2 logFC,composite DEG,−0.3451
same,Akap11 logFC,composite DEG,0.3464
same,Akap13 logFC,composite DEG,0.4953
same,Akr1a1 logFC,composite DEG,−0.3269
same,Akr1c19 logFC,composite DEG,−0.2727
same,Akr1d1 logFC,composite DEG,0.361
same,Alad logFC,composite DEG,−0.4206
same,Aldh4a1 logFC,composite DEG,−0.2907
same,Aldh9a1 logFC,composite DEG,0.4159
same,Aldob logFC,composite DEG,0.3655
same,Amacr logFC,composite DEG,−0.4136
same,Amy1 logFC,composite DEG,0.4327
same,Anapc13 logFC,composite DEG,−0.3642
same,Ankrd11 logFC,composite DEG,0.4156
same,Anp32a logFC,composite DEG,−0.317
same,Apc logFC,composite DEG,0.6067
same,Apcs logFC,composite DEG,0.7584
same,Aplp2 logFC,composite DEG,0.3394
same,Apoa4 logFC,composite DEG,1.368
